Data from patent publication US20230172206A1 (BASF SE, priority 2020, published 2023).

Key:
[1] = tested on: Phakopsora pachyrhizi (F129L); test: Protective control of soybean rust on soybeans (PHAKPA P2); format: in vivo; conditions: soybean rust F129L isolate; for % PHAKPA (F129L) Disease level P2 at 4 ppm: protective P2, 4 ppm; for % PHAKPA (F129L) Disease level P2 at 16 ppm: protective P2, 16 ppm
[2] = tested on: Phakopsora pachyrhizi (F129L); test: Protective control of soybean rust on soybeans (PHAKPA P6); format: in vivo; conditions: soybean rust F129L isolate; for % PHAKPA (F129L) Disease level P6 at 4 ppm: protective P6, 4 ppm; for % PHAKPA (F129L) Disease level P6 at 16 ppm: protective P6, 16 ppm

Row | Structure (SMILES) | % PHAKPA (F129L) Disease level P2 at 4 ppm [1] [%] | % PHAKPA (F129L) Disease level P2 at 16 ppm [1] [%] | % PHAKPA (F129L) Disease level P6 at 4 ppm [2] [%] | % PHAKPA (F129L) Disease level P6 at 16 ppm [2] [%]
1 | CNC(=O)/C(=N/OC)c1cccc(C)c1CO/N=C(\C)c1c(Cl)cccc1C(F)(F)F [compound 290] | 92 | 14 | 83 | 21
2 | CC/C(=N\OCc1c(C)cccc1/C(=N\OC)C(=O)NC)c1ccccc1 [compound 294] | 1 | 1 | 2 | 0
3 | CNC(=O)/C(=N/OC)c1cccc(C)c1CO/N=C(\COC)c1ccccc1 [compound 295] | 2 | 0 | 11 | 0
4 | CNC(=O)/C(=N/OC)c1cccc(C)c1CO/N=C(\C)c1ccccc1C1(C)CC1 [compound 296] | 100 | 40 | 100 | 83
5 | CO/N=C(/C(=O)OC)c1cccc(C)c1CO/N=C(\C)c1cccc(C2CC2)c1 [compound 297] | 90 | 37 | 87 | 37
6 | CNC(=O)/C(=N/OC)c1cccc(C)c1CO/N=C(\C)c1ccccc1C(F)F [compound 298] | 63 | 7 | 97 | 37
7 | CNC(=O)/C(=N/OC)c1cccc(C)c1CO/N=C(\C)c1cccc(C2CC2)c1 [compound 299] | 53 | 13 | 53 | 22
8 | CO/N=C(/C(=O)OC)c1cccc(C)c1CO/N=C(\C)c1cccc(C(C)(F)F)c1 [compound 302] | 47 | 4 | 47 | 3
9 | CNC(=O)/C(=N/OC)c1cccc(C)c1CO/N=C(\C)c1cccc(C(C)(F)F)c1 [compound 303] | 2 | 0 | 12 | 0
10 | CO/N=C(/C(=O)OC)c1cccc(C)c1CO/N=C(\C)c1ccc(Cl)cc1C(F)(F)F [compound 304] | 53 | 28 | 100 | 37
11 | CNC(=O)/C(=N/OC)c1cccc(C)c1CO/N=C(\C)c1ccc(OC)cc1C(F)(F)F [compound 324] | 2 | 1 | 12 | 0
12 | CNC(=O)/C(=N/OC)c1cccc(C)c1CO/N=C(\C)c1c(F)cccc1OC(F)(F)F [compound 325] | 24 | 4 | 22 | 1
13 | CNC(=O)/C(=N/OC)c1cccc(C)c1CO/N=C(\C)c1cccc(F)c1C(F)(F)F [compound 326] | 25 | 0 | 30 | 1
14 | CNC(=O)/C(=N/OC)c1cccc(C)c1CO/N=C(\C)c1ccc(C)cc1C(F)(F)F [compound 327] | 23 | 3 | 48 | 4
15 | CO/N=C(/C(=O)OC)c1cccc(C)c1CO/N=C(\C)c1ccc(OC)cc1C(F)(F)F [compound 328] | 33 | 8 | 23 | 5
16 | CNC(=O)/C(=N/OC)c1cccc(C)c1CO/N=C(\C)c1ccccc1OC1CC1 [compound 329] | 100 | 53 | 100 | 73
17 | CO/N=C(/C(=O)OC)c1cccc(C)c1CO/N=C(\C)c1cccc(F)c1C(F)(F)F [compound 330] | 83 | 24 | 93 | 17
18 | CO/N=C(/C(=O)OC)c1cccc(C)c1CO/N=C(\C)c1ccc(Oc2ccc(Cl)cc2)cc1C(F)(F)F [compound 335] | 77 | 53 | 80 | 25

Row | Structure (SMILES) | % PHAKPA (F129L) Disease level P2 at 4 ppm [1] [%] | % PHAKPA (F129L) Disease level P2 at 16 ppm [1] [%] | % PHAKPA (F129L) Disease level P6 at 4 ppm [2] [%] | % PHAKPA (F129L) Disease level P6 at 16 ppm [2] [%]
19 | CNC(=O)/C(=N/OC)c1cccc(C)c1CO/N=C(\C)c1ccc(Oc2ccc(Cl)cc2)cc1C(F)(F)F [compound 336] | 63 | 20 | 50 | 17
20 | CNC(=O)/C(=N/OC)c1cccc(C)c1CO/N=C(\C)c1ccc(OC)cc1OC(F)(F)F [compound 337] | 9 | 0 | 13 | 1
21 | CNC(=O)/C(=N/OC)c1cccc(C)c1CO/N=C(\C)c1ccc(C)cc1OC(F)(F)F [compound 340] | 23 | 4 | 42 | 7
22 | CNC(=O)/C(=N/OC)c1cccc(C)c1CO/N=C(\C)c1c(F)cc(F)cc1OC(F)(F)F [compound 344] | 6 | 0 | 16 | 0
23 | CNC(=O)/C(=N/OC)c1cccc(C)c1CO/N=C(\C)c1c(F)cccc1C(F)(F)F [compound 345] | 22 | 1 | 32 | 1
24 | CNC(=O)/C(=N/OC)c1cccc(C)c1CO/N=C(\C)c1c(F)ccc(F)c1OC(F)(F)F [compound 346] | 4 | 0 | 5 | 0
25 | CNC(=O)/C(=N/OC)c1cccc(C)c1CO/N=C(\C)c1ccc(OC(F)(F)F)cc1OC(F)(F)F [compound 349] | 97 | 50 | 97 | 35
26 | CNC(=O)/C(=N/OC)c1cccc(C)c1CO/N=C(\C)c1cccc(F)c1OC(F)(F)F [compound 354] | 17 | 2 | 21 | 4
27 | CNC(=O)/C(=N/OC)c1cccc(C)c1CO/N=C(\C)c1c(F)cc(Br)cc1OC(F)(F)F [compound 355] | 34 | 7 | 48 | 4
28 | CNC(=O)/C(=N/OC)c1cccc(C)c1CO/N=C(\C)c1c(F)cc(F)cc1C(F)(F)F [compound 357] | 13 | 1 | 18 | 0
29 | CNC(=O)/C(=N/OC)c1cccc(C)c1CO/N=C(\C)c1c(F)cc(Br)cc1C(F)(F)F [compound 358] | 77 | 17 | 83 | 18
30 | CNC(=O)/C(=N/OC)c1cccc(C)c1CO/N=C(\C)c1c(F)ccc(F)c1C(F)(F)F [compound 359] | 100 | 37 | 100 | 43
31 | CO/N=C(/C(=O)OC)c1cccc(C)c1CO/N=C(\C)c1c(F)cc(F)cc1C(F)(F)F [compound 360] | 53 | 9 | 80 | 5
32 | CO/N=C(/C(=O)OC)c1cccc(C)c1CO/N=C(\C)c1c(F)cc(F)cc1OC(F)(F)F [compound 361] | 80 | 18 | 88 | 31
33 | CNC(=O)/C(=N/OC)c1cccc(C)c1CO/N=C(\C)c1ccc(OC(F)(F)F)cc1C(F)(F)F [compound 363] | 29 | 1 | 25 | 2
34 | CO/N=C(/C(=O)OC)c1cccc(C)c1CO/N=C(\C)c1c(F)cccc1C(F)(F)F [compound 365] | 77 | 15 | 97 | 43
35 | CO/N=C(/C(=O)OC)c1cccc(C)c1CO/N=C(\C)c1c(F)ccc(F)c1OC(F)(F)F [compound 366] | 53 | 13 | 83 | 12
36 | CO/N=C(/C(=O)OC)c1cccc(C)c1CO/N=C(\C)c1c(F)cc(Br)cc1C(F)(F)F [compound 368] | 83 | 47 | 90 | 73
